From ChEMBL document CHEMBL1149917, “Peptidomimetic growth hormone secretagogues: synthesis and biological activities of analogs varied at the indole nucleus of the prototypical spiropiperidine L-162,752” (Bioorg Med Chem Lett, 1996)

Species on record: Rattus norvegicus
Experiment: Compound was tested for intrinsic growth hormone(GH) secretory potency in the rat pituitary cell assay
Format: functional
Settings: Pituitary gland cell

| SMILES | EC50 [µM] |
| --- | --- |
| C[C@@H](O)CNC(C)(C)CC(=O)N[C@H](COCc1ccccc1)C(=O)N1CCC2(CCc3ccccc32)CC1 | 0.24 |
| CC(C)(N)C(=O)N[C@H](Cc1ccccc1)C(=O)N1CCC2(CCc3ccccc32)CC1 | 0.25 |
| CC(C)(N)C(=O)N[C@H](Cc1ccc2ccccc2c1)C(=O)N1CCC2(CCc3ccccc32)CC1 | 0.9 |
| CC(C)(CC(=O)N[C@H](CCc1ccccc1)C(=O)N1CCC2(CCc3ccccc32)CC1)NC[C@H](O)CO | 0.17 |
| C[C@@H](O)CNC(C)(C)CC(=O)N[C@H](CCc1ccccc1)C(=O)N1CCC2(CCc3ccccc32)CC1 | 0.2 |
| CC(C)(N)C(=O)N[C@H](Cc1cccc2ccccc12)C(=O)N1CCC2(CCc3ccccc32)CC1 | 1.1 |
| CC(C)(N)C(=O)N[C@H](CSCc1ccccc1)C(=O)N1CCC2(CCc3ccccc32)CC1 | 0.065 |
| CC(C)(N)C(=O)N[C@H](Cc1csc2ccccc12)C(=O)N1CCC2(CCc3ccccc32)CC1 | 0.49 |
| CC(C)(N)CC(=O)N[C@H](COCc1ccccc1)C(=O)N1CCC2(CCc3ccccc32)CC1 | > 1 |
| CC(C)(N)CC(=O)N[C@H](CCc1ccccc1)C(=O)N1CCC2(CCc3ccccc32)CC1 | > 1 |
